Counter-ions that a name gives are not always drawn.
Experiments:
[1] = biological target: T1, proMMP9(20-445;ΔFnII) (SEQ ID NO:6) (Homo sapiens, UniProt P14780, DEL216-390); assay: ThermoFluor binding assay with proMMP9(20-445;ΔFnII)
T1 construct: start methionine (N); made in house; host or cells: E. coli BL21(DE3) RIL
T1 sequence (P14780 with tags, fused parts or gaps DEL216-390): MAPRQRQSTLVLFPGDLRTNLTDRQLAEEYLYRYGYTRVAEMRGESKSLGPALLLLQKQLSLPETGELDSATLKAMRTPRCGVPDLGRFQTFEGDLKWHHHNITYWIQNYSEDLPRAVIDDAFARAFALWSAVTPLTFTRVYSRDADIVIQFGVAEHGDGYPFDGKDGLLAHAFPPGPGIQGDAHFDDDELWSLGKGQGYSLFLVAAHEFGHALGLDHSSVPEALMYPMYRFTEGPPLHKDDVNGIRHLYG
Description: (§1) The ThermoFluor® (TF) assay is a 384-well plate-based binding assay that measures thermal stability of proteins (Biomol Screen 2001, 6, 429-40; Biochemistry 2005, 44, 5258-66). The experiments were carried out using instruments available from Johnson & Johnson Pharmaceutical Research & Development, LLC. TF dye used in all experiments was […] (1,8-ANS) (Invitrogen: A-47).
(§2) Compounds were arranged in a pre-dispensed plate (Greiner Bio-one: 781280), wherein compounds were serially diluted in 100% DMSO across 11 columns within a series. Columns 12 and 24 were used as DMSO reference and contained no compound. For multiple compound concentration-response experiments, the compound aliquots ([…]) were robotically predispensed directly into black 384-well polypropylene PCR microplates (Abgene: TF-0384/k) using a Cartesian Hummingbird liquid handler (DigiLab, Holliston, Mass.). Following compound dispense, protein and dye solutions were added to achieve the final assay volume of 3 μL. The assay solutions were overlayed with 1 μL of silicone oil (Fluka, type DC 200: 85411) to prevent evaporation.
(§3) Assay plates were robotically loaded onto a thermostatically controlled PCR-type thermal block and then heated from 40 to 90° C. at a ramp-rate of 1° C./min for all experiments. Fluorescence was measured by continuous illumination with UV light (Hamamatsu LC6) supplied via fiber optics and filtered through a band-pass filter (380-400 nm; >60D cutoff). Fluorescence emission of the entire 384-well plate was detected by measuring light intensity using a CCD camera (Sensys, Roper Scientific) filtered to detect 500±25 nm, resulting in simultaneous and independent readings of all 384 wells. A single image with 20-sec exposure time was collected at each temperature, and the sum of the pixel intensity in a given area of the assay plate was recorded vs temperature and fit to standard equations to yield the Tm (J Biomol Screen 2001, 6, 429-40).
(§4) Thermodynamic parameters necessary for fitting compound binding for each proMMP were estimated by differential scanning calorimetry (DSC) and from ThermoFluor® data. The heat capacity of unfolding for each protein was estimated from the molecular weight and from ThermoFluor® dosing data.
ThermoFluor® with proMMP9(20-445;ΔFnII) (SEQ ID NO:6)
The protein sample preparations included a desalting buffer exchange step via a PD-10 gravity column (GE Healthcare). The desalting buffer exchange was performed prior to diluting the protein to the final assay concentration of 2.8 μM proMMP9(20-445;ΔFnII) (SEQ ID NO:6). The concentration of proMMP9(20-445;ΔFnII) (SEQ ID NO:6) was determined spectrophotometrically based on a calculated extinction coefficient of ε280=39880 M^−1cm^−1, a calculated molecular weight of 28.2 kDa, and calculated pI of 5.5. ThermoFluor® reference conditions were define as follows: 80 μg/mL (2.8 μM) proMMP9(20-445;ΔFnII) (SEQ ID NO:6), 50 μM 1,8-ANS, pH 7.0 Buffer (50 mM HEPES pH 7.0, 100 mM NaCl, 0.001% Tween-20, 2.5 mM MgCl2, 300 μM CaCl2). The thermodynamic parameters for proMMP9(20-445;ΔFnII) (SEQ ID NO:6) are as follows: Tm (° C.)=72 (+/−0.1), ΔUH(Tm) (cal mol^−1)=160000(+/−5000), ΔUS(Tm) (cal mol^−1 K^−1)=434, ΔUCp (cal mol^−1 K^−1)=2400.

[2] = biological target: T2, proMMP9(67-444;ΔFnII) (SEQ ID NO:5) (Homo sapiens, UniProt P14780, DEL216-390); assay: ThermoFluor binding assay with proMMP9(67-444;ΔFnII)
T2 construct: start methionine (N); made in house; host or cells: E. coli BL21(DE3) RIL
T2 sequence (P14780 with tags, fused parts or gaps DEL216-390): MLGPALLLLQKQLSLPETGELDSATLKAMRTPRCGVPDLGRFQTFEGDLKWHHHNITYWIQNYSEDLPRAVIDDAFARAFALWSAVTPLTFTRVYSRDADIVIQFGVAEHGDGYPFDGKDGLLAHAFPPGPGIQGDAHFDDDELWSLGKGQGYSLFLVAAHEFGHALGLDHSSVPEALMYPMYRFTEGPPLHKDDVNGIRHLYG
Description: as §1, §2, §3, §4
ThermoFluor® with proMMP9(67-444;ΔFnII) (SEQ ID NO:5)
The protein sample preparations had to include a desalting buffer exchange step via a PD-10 gravity column (GE Healthcare). The desalting buffer exchange was performed prior to diluting the protein to the final assay concentration of 3.5 μM proMMP9(67-444;ΔFnII) (SEQ ID NO:5). The concentration of proMMP9(67-444;ΔFnII) (SEQ ID NO:5) was determined spectrophotometrically based on a calculated extinction coefficient of ε280=33900 M^−1cm^−1, a calculated molecular weight of 22.6 kDa, and calculated pI of 5.20. ThermoFluor® reference conditions were defined as follows: 80 μg/mL (3.5 μM) proMMP9(67-444;ΔFnII) (SEQ ID NO:5), 50 μM 1,8-ANS, pH 7.0 Buffer (50 mM HEPES pH 7.0, 100 mM NaCl, 0.001% Tween-20, 2.5 mM MgCl2, 300 μM CaCl2). The thermodynamic parameters for proMMP9(67-444;ΔFnII) (SEQ ID NO:5) are as follows: Tm (° C.)=63 (+/−0.1), ΔUH(Tm) (cal mol^−1)=105000(+/−5000), ΔUS(Tm) (cal mol^−1 K^−1)=[…], ΔUCp (cal mol^−1 K^−1)=2000.

[3] = biological target: T3, full-length proMMP9(1-707) (SEQ ID NO:1), activation by catalytic MMP3 (Homo sapiens, UniProt P14780, R574P); assay: proMMP9/MMP3 P126 Activation Assay; assay type: biochemical
T3 construct: made in house; host or cells: HEK293 (proMMP9, secreted); E. coli (MMP3)
T3 sequence (P14780 20-707 R574P): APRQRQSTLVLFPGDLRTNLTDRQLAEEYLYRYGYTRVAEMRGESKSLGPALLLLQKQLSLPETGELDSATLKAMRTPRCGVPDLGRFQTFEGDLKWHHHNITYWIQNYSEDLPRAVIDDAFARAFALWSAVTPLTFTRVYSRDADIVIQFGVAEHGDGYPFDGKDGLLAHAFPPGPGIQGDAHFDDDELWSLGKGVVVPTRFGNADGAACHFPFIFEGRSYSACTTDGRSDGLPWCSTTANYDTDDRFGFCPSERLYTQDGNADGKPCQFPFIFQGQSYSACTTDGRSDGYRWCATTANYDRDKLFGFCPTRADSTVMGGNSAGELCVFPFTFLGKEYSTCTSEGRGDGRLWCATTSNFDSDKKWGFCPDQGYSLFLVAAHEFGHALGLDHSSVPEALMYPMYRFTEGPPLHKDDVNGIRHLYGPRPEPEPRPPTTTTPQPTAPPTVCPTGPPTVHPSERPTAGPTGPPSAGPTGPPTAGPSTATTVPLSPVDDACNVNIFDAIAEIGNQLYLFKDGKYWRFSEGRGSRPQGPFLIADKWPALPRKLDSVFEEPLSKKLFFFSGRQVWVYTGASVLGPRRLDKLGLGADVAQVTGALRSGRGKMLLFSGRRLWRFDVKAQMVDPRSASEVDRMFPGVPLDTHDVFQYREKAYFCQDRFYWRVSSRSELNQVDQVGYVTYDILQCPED
Description: proMMP9/MMP3 P126 Activation Assay
The reaction volume was 50 μL. […] Reactivity of residual MMP3 towards P-126 substrate was minimal under these conditions.

| SMILES | Kd [1] | Kd [2] | IC50 [3] |
| --- | --- | --- | --- |
| CC(C)Oc1ccc(S(N)(=O)=O)cc1Nc1nc(-c2ccc(C(=O)N3CCN(C(=O)OC(C)(C)C)CC3)nc2)cs1 [Example 54, 4-{5-[2-(2-Isopropoxy-5-sulfamoyl-phenylamino)-thiazol-4-yl]-pyridine-2-carbonyl}-piperazine-1-carboxylic acid tert-butyl ester.TFA] | 960 nM | 2500 nM | 3700 nM |
| CCN1CCN(c2ccc(-c3csc(Nc4cc(S(N)(=O)=O)ccc4OC(C)C)n3)cn2)CC1 [Example 38, 4-Isopropoxy-3-{4-[6-(4-ethyl-piperazin-1-yl)-pyridin-3-yl]-thiazol-2-ylamino}-benzenesulfonamide.TFA] | 73 nM | 380 nM | 170 nM |
| CC(C)Oc1ccc(S(N)(=O)=O)cc1Nc1nc(-c2ccc(C(=O)N3CCN(C(C)C)CC3)nc2)cs1 [Example 51, 4-Isopropoxy-3-{4-[6-(4-isopropyl-piperazine-1-carbonyl)-pyridin-3-yl]-thiazol-2-ylamino}-benzenesulfonamide.TFA] | 1200 nM | 2700 nM | 1800 nM |
| CC(C)Oc1ccc(S(N)(=O)=O)cc1Nc1nc(-c2ccc(N3CCN(C(C)C)CC3)nc2)cs1 [Example 39, 4-Isopropoxy-3-{4-[6-(4-isopropyl-piperazin-1-yl)-pyridin-3-yl]-thiazol-2-ylamino}-benzenesulfonamide.TFA] | 70 nM | 170 nM | 87 nM |
| CC(C)Oc1ccc(S(N)(=O)=O)cc1Nc1nc(-c2ccc(C(=O)NC3CCN(C)CC3)nc2)cs1 [Example 55, 5-[2-(2-Isopropoxy-5-sulfamoyl-phenylamino)-thiazol-4-yl]-pyridine-2-carboxylic acid (1-methyl-piperidin-4-yl)-amide.TFA] | 810 nM | 2600 nM | 420 nM |
| NC(=O)c1ccc(OC(F)(F)F)c(Nc2nc(-c3ccnc(Cl)c3)cs2)c1 [Example 34, 3-[4-(2-Chloro-pyridin-4-yl)-thiazol-2-ylamino]-4-trifluoromethoxy-benzamide.TFA] | 180 nM | 1500 nM | 1100 nM |
| COc1cc(C)c(C(N)=O)cc1Nc1nc(-c2ccc(N3CCN(C)CC3)nc2)cs1 [Example 7, 4-Methoxy-2-methyl-5-{4-[6-(4-methyl-piperazin-1-yl)-pyridin-3-yl]-thiazol-2-ylamino}-benzamide.TFA] | 1200 nM | 3900 nM | 2400 nM |

Continued, values first:

| Kd [1] | Kd [2] | IC50 [3] | SMILES |
| --- | --- | --- | --- |
| 640 nM | 1500 nM | 390 nM | CC(C)Oc1ccc(S(N)(=O)=O)cc1Nc1nc(-c2ccc(CO)nc2)cs1 [Example 56, 3-[4-(6-Hydroxymethyl-pyridin-3-yl)-thiazol-2-ylamino]-4-isopropoxy-benzenesulfonamide] |
| 1300 nM | 2400 nM | ~2000 nM | CC(C)Oc1ccc(S(N)(=O)=O)cc1Nc1nc(-c2ccc(N3CCOCC3)nc2)cs1 [Example 37, 4-Isopropoxy-3-[4-(6-morpholin-4-yl-pyridin-3-yl)-thiazol-2-ylamino]-benzenesulfonamide.TFA] |
| 190 nM | 460 nM | 110 nM | CC(C)Oc1ccc(S(N)(=O)=O)cc1Nc1nc(-c2ccnc(N3CCN(C)CC3)c2)cs1 [Example 35, 4-Isopropoxy-3-{4-[2-(4-methyl-piperazin-1-yl)-pyridin-4-yl]-thiazol-2-ylamino}-benzenesulfonamide.TFA] |
| 70000 nM | 11000 nM | 11000 nM | COc1cc(C(N)=O)ccc1Nc1nc(-c2cccnc2)cs1 [Example 6, 3-Methoxy-4-(4-pyridin-3-yl-thiazol-2-ylamino)-benzamide] |
| 90 nM | 130 nM | 160 nM | CC(C)Oc1ccc(S(N)(=O)=O)cc1Nc1nc(-c2ccc(C(=O)NCCN(C)C)nc2)cs1 [Example 50, 5-[2-(2-Isopropoxy-5-sulfamoyl-phenylamino)-thiazol-4-yl]-pyridine-2-carboxylic acid (2-dimethylamino-ethyl)-amide.TFA] |
| 430 nM | 1300 nM | 520 nM | COCCCc1ccc(-c2csc(Nc3cc(S(N)(=O)=O)ccc3OC(C)C)n2)cn1 [Example 94, 4-Isopropoxy-3-((4-(6-(3-methoxypropyl)pyridin-3-yl)thiazol-2-yl)amino)benzenesulfonamide.TFA] |
| 510 nM | 2200 nM | 610 nM | CC(C)Oc1ccc(S(N)(=O)=O)cc1Nc1nc(-c2ccc(NCC3CC3)nc2)cs1 [Example 62, 3-((4-(6-((Cyclopropylmethyl)amino)pyridin-3-yl)thiazol-2-yl)amino)-4-isopropoxybenzenesulfonamide.TFA] |
| 20000 nM | 2900 nM | 3200 nM | CC(C)Oc1ccc(C#N)cc1Nc1nc(-c2cccnc2)cs1 [Example 16, 4-Isopropoxy-3-(4-pyridin-3-yl-thiazol-2-ylamino)-benzonitrile.HBr] |
| 890 nM | 2300 nM | 970 nM | CC(C)Oc1ccc(S(N)(=O)=O)cc1Nc1nc(-c2ccc(C(=O)N(C)CCN(C)C)nc2)cs1 [Example 53, 5-[2-(2-Isopropoxy-5-sulfamoyl-phenylamino)-thiazol-4-yl]-pyridine-2-carboxylic acid (2-dimethylamino-ethyl)-methyl-amide.TFA] |
| 260 nM | 2500 nM | 120 nM | CC(C)Oc1ccc(S(N)(=O)=O)cc1Nc1nc(-c2ccc(N3CCNC(=O)C3)nc2)cs1 [Example 64, 4-Isopropoxy-3-((4-(6-(3-oxopiperazin-1-yl)pyridin-3-yl)thiazol-2-yl)amino)benzenesulfonamide.TFA] |

Source: patent US20120129843A1, “PYRIDYL-THIAZOLYL INHIBITORS OF PRO-MATRIX METALLOPROTEINASE ACTIVATION” (priority 2010, published 2012)
